Assay results: US12441688B1, “CCR5 inhibitor” (KING SAUD UNIVERSITY, priority 2025, dated 2025)

Target: T1, CCR5 receptor (Homo sapiens, UniProt P51681)
T1 construct: expressed in transfected cells; host or cells: Chinese hamster ovary (CHO) cells expressing the CCR5 receptor, kept under blasticidin S selection
Experiment: CCR5 binding inhibition assay in CHO cells expressing the CCR5 receptor
Text: All of the reagents and cell lines were obtained from commercial suppliers like Sigma Aldrich, Merck India Ltd., Himedia, and Rankem chemicals. Chinese Hamster Ovaries (CHO) cells expressing the CCR5 receptor were maintained in Ham's F-12 medium supplemented with 10% fetal calf serum, 50 units of penicillin per milliliter, and 50 micrograms of streptomycin per milliliter, in the presence of 5 micrograms of blasticidin S hydrochloride per milliliter. […] The cells were then washed. […] The inhibitory activity of the compounds on CCR5 binding was calculated using the formula: [1−(E−N)/(P−N)]×100%.
In this formula, N represents the absorbance at 450 nm in the negative control (the control antibody), while P corresponds to the absorbance in the positive control (the detecting antibody). E corresponds to the absorbance of the test compounds.
The data was analyzed using non-linear regression analysis to determine the IC50 values for both compounds.

T1 sequence (P51681 whole entry): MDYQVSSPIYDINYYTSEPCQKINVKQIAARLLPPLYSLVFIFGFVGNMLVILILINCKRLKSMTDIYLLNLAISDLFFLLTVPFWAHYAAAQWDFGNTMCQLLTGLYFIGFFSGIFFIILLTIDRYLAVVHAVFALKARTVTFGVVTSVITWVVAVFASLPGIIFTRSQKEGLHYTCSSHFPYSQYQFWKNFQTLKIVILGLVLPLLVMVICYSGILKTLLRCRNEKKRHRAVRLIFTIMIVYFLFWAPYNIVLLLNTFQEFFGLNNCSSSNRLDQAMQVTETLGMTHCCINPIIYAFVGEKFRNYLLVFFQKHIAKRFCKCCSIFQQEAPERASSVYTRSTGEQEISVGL

Row | Molecule | Percent inhibition against CCR5 (1 nM compound, listed as test compound, 0.001 µM) [%] | inhibition at 0.001 µM (1 nM compound, read-out: Percent inhibition against CCR5) [%] | Percent inhibition against CCR5 (10 nM compound, listed as test compound, 0.01 µM) [%] | inhibition at 0.01 µM (10 nM compound, read-out: Percent inhibition against CCR5) [%] | Percent inhibition against CCR5 (100 nM compound, 0.1 µM) [%] | inhibition at 0.1 µM (100 nM compound, read-out: Percent inhibition against CCR5) [%] | Percent inhibition against CCR5 (1000 nM compound, 1 µM) [%] | inhibition at 1 µM (1000 nM compound, read-out: Percent inhibition against CCR5) [%] | Percent inhibition against CCR5 (2000 nM compound, listed as test compound, 2 µM) [%] | inhibition at 2 µM (2000 nM compound, read-out: Percent inhibition against CCR5) [%] | IC50 (non-linear regression) [nM] | Percent inhibition against CCR5 (1 nM compound) [%] | Percent inhibition against CCR5 (10 nM compound) [%] | Percent inhibition against CCR5 (100 nM compound) [%] | Percent inhibition against CCR5 (1000 nM compound) [%] | Percent inhibition against CCR5 (2000 nM compound) [%]
1 | Cc1n[nH]c(C(C)C)c1C(=O)N1CCCN(Cc2ccc(Oc3ccc(C#N)cc3)cc2)CC1 [Novel Compound, 4-(4-((4-(5-isopropyl-3-methyl-1H-pyrazole-4-carbonyl)-1,4-diazepan-1-yl)methyl)phenoxy)benzonitrile] | 24.5 | ≥ 24.5 | 39.8 | ≥ 39.8 | 59.1 ± 3.12 | ≥ 59.1 | 78.2 ± 4.75 | ≥ 78.2 | 91.3 | ≥ 91.3 | 2.62 |  |  |  |  | 
2 | Maraviroc [reference compound] |  |  |  |  |  |  |  |  |  |  |  | 20.0 ± 1.93 | 28.5 ± 2.40 | 55.1 ± 2.81 | 68.2 ± 2.97 | 85.3
